{"source": "patent US7015199B1", "about": "“Treatment of psoriasis through down-regulation of the EGF-receptor with topically-applied EGF” (priority 2000, dated 2006)", "origin": "cited, not measured here", "system": "EGF-dependent cancer cell lines", "settings": "high levels of EGF, in-vitro"}
{"substance": "epidermal growth factor (NSDSECPLSHDGYCLHDGVCMYIEALDKYACNCVVGYIGERCQYRDLKWWELR; Epidermal growth factor; UniProt P01133 971-1023, looked up) [EGF, epidermal growth factor, ligand of the EGF receptor]", "values": [{"measurement": "growth of EGF-dependent cancer cell lines", "value": "inhibited the growth"}]}
